Results reported in US20070142266A1, “Combination comprising a P-gp inhibitor and an anti-epileptic drug” (priority 2001, published 2007).

How the values were obtained:
P-glycoprotein (P-gp) = experiment: In vivo microdialysis in adult female Wistar rats: effect of local P-gp inhibitor perfusion on ECF levels of phenytoin in cerebral cortex; set-up: species or system rat
Method: (§1) In vivo microdialysis in Adult Female Wistar Rats
(§2) The combination of phenytoin (Aldrich, Steinheim, Germany) and a P-gp inhibitor, e.g. PSC833) is given via the microdialysis probe in the right frontal cortex, while a probe in the left cortex served as a vehicle control site. Perfusion with the P-gp inhibitor started 15 to 60 minutes prior to i.p. administration of 50 mg/kg phenytoin. • Animals: Adult female Wistar rats (Harlan-Winkelmann, Germany) kept under controlled environmental conditions are used in the study. • Implantation of guide cannulae: Guide cannulae (CMA/12 polyurethane, Camegie Medicine, Sweden) are implanted into the left and right frontal (motor) cortex under anesthesia. The tips of the guide are positioned at rostral +3.2, lateral +3.2 or 3.2 and ventral 2.0 mm to bregma, coordinates according to Paxinos and Watson, The rat brain in stereotaxic coordinates, Sydney, Academic Press, 1986. • Microdialysis procedure: Microdialysis experiments are performed following a recovery period of at least 3 days after surgery. The microdialysis probe is lowered through the guide cannula to a depth of 5.0 mm according to bregma. 14 to 16 h after insertion, perfusion of the probe is started using Ringer solution (in mM 147 Na^+, 2.3 Ca^2+, 4.0 K^+and 155.6 Cr, pH 6.0). […]

[1] = In vivo microdialysis in adult female Wistar rats: extracellular (ECF) phenytoin levels in cerebral cortex in the absence of a P-gp inhibitor; details: rat, cerebral cortex extracellular fluid (microdialysate), ip, 50 mg/kg phenytoin i.p., after maximum levels reached, read-out: average half-life of decrease of ECF concentrations of phenytoin (converted)
Method: as §1, §2

Row | half-life [1] [h] | Compound | increase of ECF levels of phenytoin above control (ECF plasma ratio of treated site vs vehicle treated controls) (P-glycoprotein (P-gp); 2 mM PSC833 via microdialysis probe, phenytoin 50 mg/kg i.p., ECF plasma ratio comparison) | maximum increase of ECF levels of phenytoin compared to untreated site (P-glycoprotein (P-gp); 2 mM PSC833 via right microdialysis probe started 15 min before phenytoin 50 mg/kg i.p., left cortex vehicle site) [%]
1 | – | C/C=C/C[C@@H](C)C(=O)[C@H]1C(=O)N[C@@H](C(C)C)C(=O)N(C)CC(=O)N(C)[C@@H](CC(C)C)C(=O)N[C@@H](C(C)C)C(=O)N(C)[C@@H](CC(C)C)C(=O)N[C@@H](C)C(=O)N[C@H](C)C(=O)N(C)[C@@H](CC(C)C)C(=O)N(C)[C@@H](CC(C)C)C(=O)N(C)[C@@H](C(C)C)C(=O)N1C [PSC833, [3′-desoxy-3′-oxo-MeBmt]^1-[Val]^2-Ciclosporin A] | about 150% | 70±20
2 | ~4 | O=C1NC(=O)C(c2ccccc2)(c2ccccc2)N1 [phenytoin, 5,5-diphenyl-2,4-imidazolidinedione] | – | –
